The values that follow come from patent US7790724B2, “c-fms kinase inhibitors” (Janssen Pharmaceutica N.V., priority 2003, dated 2010).

One may read the inhibition as the relative decrease from the control value, in per cent.

Structures are written as SMILES. pIC50: −log10 of the molar value. Counter-ions that a name gives are not always drawn. Like-named read-outs stand apart in the source and are kept apart here. Where only a bound is given, the exact number is not on record here.

This assay concerns the target T1, c-fms (Homo sapiens, UniProt P07333).
T1 construct: 3DP
Briefly: autophosphorylation, fluorescence polarization competition immunoassay for c-fms inhibition. It is filed as biochemical. The following applies: for inhibition at 10 µM: read-out: % Inhibition (at 10 μM); for inhibition at 2 µM: @ 2 μM compound (values marked *). The procedure:
The assay was performed in black 96-well microplates (LJL BioSystems). The assay buffer used was 100 mM HEPES, pH 7.5, 1 mM DTT, 0.01% (v/v) Tween-20. Compounds were diluted in assay buffer containing 4% DMSO just prior to the assay. […] The kinase reaction was initiated by adding 2 μL of 5 mM ATP (Sigma) in assay buffer. The final concentrations in the assay were 10 nM c-fms, 1 mM ATP, 5 mM MgCl2, 2% DMSO. Control reactions were ran in each plate: in positive and negative control wells, assay buffer (made 4% in DMSO) was substituted for the compound; in addition, positive control wells received 1.2 μL of 50 mM EDTA.
The plates were incubated at room temperature for 45 min. At the end of the incubation, the reaction was quenched with 1.2 μL of 50 mM EDTA (EDTA was not added to the positive control wells at this point; see above). Following a 5-min incubation, each well received 10 μL of a 1:1:3 mixture of anti-phosphotyrosine antibody, 10×, PTK green tracer, 10× (vortexed), FP dilution buffer, respectively (all from PanVera, cat. # P2837). The plate was covered, incubated for 30 min at room temperature and the fluorescence polarization was read on the Analyst. […] The reported IC50 values are averages of three independent measurements.
(In general: In fluorescence polarisation assays a small probe gives low polarisation when free and higher when bound to something large.)

Where [1] appears, read: 10 nM c-fms, 1 mM ATP, averages of three independent measurements, read-out: IC50.
The mark [2] stands for this setting: determined in a similar fashion for Examples 11-68, read-out: IC-50 (activites below 1 μM).

T1 sequence (P07333 20-972): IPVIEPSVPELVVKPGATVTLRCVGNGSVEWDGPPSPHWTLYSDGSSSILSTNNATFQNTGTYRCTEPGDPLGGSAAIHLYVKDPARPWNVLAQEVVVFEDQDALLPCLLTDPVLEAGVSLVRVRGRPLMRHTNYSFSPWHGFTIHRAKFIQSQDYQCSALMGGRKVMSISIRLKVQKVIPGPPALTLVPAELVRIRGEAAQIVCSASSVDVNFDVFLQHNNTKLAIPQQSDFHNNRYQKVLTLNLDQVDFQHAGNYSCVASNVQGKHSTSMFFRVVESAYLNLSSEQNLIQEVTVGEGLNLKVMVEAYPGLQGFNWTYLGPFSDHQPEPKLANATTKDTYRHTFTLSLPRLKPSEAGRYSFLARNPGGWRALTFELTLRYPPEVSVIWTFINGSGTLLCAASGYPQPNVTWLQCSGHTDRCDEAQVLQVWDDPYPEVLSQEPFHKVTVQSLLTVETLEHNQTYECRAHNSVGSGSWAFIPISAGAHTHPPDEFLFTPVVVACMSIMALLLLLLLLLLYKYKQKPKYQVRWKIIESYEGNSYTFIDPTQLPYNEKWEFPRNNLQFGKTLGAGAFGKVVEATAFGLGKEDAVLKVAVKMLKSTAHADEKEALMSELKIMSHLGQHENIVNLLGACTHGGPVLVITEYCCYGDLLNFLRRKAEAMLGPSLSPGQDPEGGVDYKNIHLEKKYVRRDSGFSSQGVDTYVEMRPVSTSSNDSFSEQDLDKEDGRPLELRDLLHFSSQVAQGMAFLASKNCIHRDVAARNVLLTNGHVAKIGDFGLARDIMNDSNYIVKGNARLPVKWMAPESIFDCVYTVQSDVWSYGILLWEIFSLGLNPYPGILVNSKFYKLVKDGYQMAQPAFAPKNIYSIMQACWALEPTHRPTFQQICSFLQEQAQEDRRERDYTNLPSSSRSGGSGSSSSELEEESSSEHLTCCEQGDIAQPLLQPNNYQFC

With `O=C(Nc1ccccc1N1CCC(CCO)CC1)c1ccc([N+](=O)[O-])o1`, the pIC50 under setting [1] is over 6.00. Besides, the inhibition at 10 µM (at 10 μM compound) was found to be 100%. Consider `CC1CCN(c2ccccc2NC(=O)c2ccc(C#N)o2)CC1`, for which the pIC50 under setting [1] was over 6.00. Besides, the inhibition at 10 µM (at 10 μM compound) is 97%. Turning to `N#Cc1ccc(C(=O)Nc2ccccc2N2CCCCC2)o1`, the pIC50 under setting [1] is over 6.00. Further, the inhibition at 10 µM (at 10 μM compound) worked out at 99%. `O=C(Nc1ccccc1N1CCCCC1)c1cc([N+](=O)[O-])c[nH]1`: the pIC50 under setting [1] was over 6.00. Moreover, under “at 10 μM compound”, the inhibition at 10 µM is 99%. Regarding `O=C(Nc1cc(CO)ccc1N1CCCCC1)c1ccc([N+](=O)[O-])o1`, under setting [1], the pIC50 was over 6.00. Further, the inhibition at 10 µM (at 10 μM compound) was 100%.

Turning to `N#Cc1ccc(C(=O)Nc2c(F)cccc2N2CCCCC2)o1`, the pIC50 under setting [1] is under 6.00. Moreover, the inhibition at 10 µM (at 10 μM compound) came out at 61%. On to `CC1CCN(c2ccccc2NC(=O)c2ccc([N+](=O)[O-])o2)CC1`, for which the pIC50 was over 6.00 and the inhibition at 10 µM came to 92%. Regarding `O=C(Nc1ccccc1N1CCC(CO)CC1)c1ccc([N+](=O)[O-])o1`, under setting [1], the pIC50 is over 6.00. Where the note is “at 10 μM compound”, the inhibition at 10 µM turned out to be 100%. Regarding `O=C(Nc1ccccc1N1CCC(O)CC1)c1ccc([N+](=O)[O-])o1`, the pIC50 under setting [1] was over 6.00. Further, the inhibition at 10 µM (at 10 μM compound) worked out at 98%. For the compound `O=C(Nc1ccccc1N1CCCCCC1)c1ccc([N+](=O)[O-])o1`, under setting [1], the pIC50 is over 6.00. Further, the inhibition at 10 µM (at 10 μM compound) stood at 100%. In the case of `O=C(Nc1ccccc1N1CCCCC1)c1ccc([N+](=O)[O-])o1`, where the note is “at 10 μM compound”, the inhibition at 10 µM turned out to be 91%. As to `COc1ccc(N2CCCCC2)c(NC(=O)c2ccc(C#N)o2)c1`, 2 µM produced 99% inhibition. Further, the pIC50 under setting [1] is over 6.00.

With `CC1CCCN(c2ccccc2NC(=O)c2ccc([N+](=O)[O-])o2)C1` (stereo not drawn), the pIC50 under setting [1] was over 6.00. In addition, the inhibition at 10 µM (at 10 μM compound) came out at 96%. On the same counts, the results for `Cc1cccc(N2CCCCC2)c1NC(=O)c1ccc(C#N)o1` are under 6.00 and 50%. For `O=C(Nc1ccccc1N1CCCCC1)c1cc([N+](=O)[O-])ccn1`, the pIC50 under setting [1] was under 6.00. For the same compound, where the note is “at 10 μM compound”, the inhibition at 10 µM was determined as 90%. In the case of `O=C(Nc1ccccc1N1CCOCC1)c1ccc([N+](=O)[O-])o1`, the pIC50 under setting [1] is under 6.00. The inhibition at 10 µM (at 10 μM compound) amounted to 89%. In the case of `O=C(Nc1ccccc1N1CCCCC1)c1ccc(Cl)o1`, the pIC50 under setting [1] is under 6.00. Besides, the inhibition at 10 µM (at 10 μM compound) amounted to 88%. On to `C[C@H]1CN(c2ccccc2NC(=O)c2ccc([N+](=O)[O-])o2)C[C@H](C)O1`, for which the pIC50 under setting [1] was under 6.00. Further, the inhibition at 10 µM (at 10 μM compound) was 80%. The matching figures for `O=C(Nc1ccccc1N1CCCCC1)c1cccc([N+](=O)[O-])c1`: under 6.00 and 77%. As for `O=C(Nc1ccccc1N1CCCCC1)c1ccc(Br)o1`, the pIC50 under setting [1] was under 6.00. Further, under “at 10 μM compound”, the inhibition at 10 µM is 68%. As for `CC(=O)c1ccc(C(=O)Nc2ccccc2N2CCCCC2)s1`, the pIC50 under setting [1] is under 6.00. Also, for the setting “at 10 μM compound”, the inhibition at 10 µM was found to be 60%. On to `C[C@@H]1CN(c2ccccc2NC(=O)c2ccc([N+](=O)[O-])o2)C[C@H](C)O1`, for which, under setting [1], the pIC50 is under 6.00. Besides, under “at 10 μM compound”, the inhibition at 10 µM came to 72%. As for `O=C(Nc1ccccc1N1CCCCC1)c1n[nH]cc1[N+](=O)[O-]`, under setting [1], the pIC50 is under 6.00. The inhibition at 10 µM (at 10 μM compound) was determined as 61%.

Consider `CCOc1ccccc1NC(=O)c1ccc([N+](=O)[O-])o1`, for which, under setting [1], the pIC50 was under 6.00. The inhibition at 10 µM (at 10 μM compound) was determined as 56%. As to `O=C(O)c1ccc(C(=O)Nc2ccccc2N2CCCCC2)o1`, the pIC50 under setting [1] is under 6.00. Also, for the setting “at 10 μM compound”, the inhibition at 10 µM turned out to be 24%. With `O=Cc1ccc(C(=O)Nc2ccccc2N2CCCCC2)o1`, the pIC50 under setting [1] was under 6.00. Further, under “at 10 μM compound”, the inhibition at 10 µM was 86%. For the compound `N#Cc1ccc(C(=O)Nc2ccccc2N2CCC(O)CC2)o1`, the inhibition at 2 µM is 90%. Also, under setting [1], the pIC50 is under 6.00.

For the compound `N#Cc1ccc(C(=O)Nc2ccccc2N2CCC(CCO)CC2)o1`, at 2 µM the inhibition was 97%. Also, the pIC50 under setting [1] was over 6.00. `O=C(Nc1cc(F)ccc1N1CCCCC1)c1ccc([N+](=O)[O-])o1`: the pIC50 under setting [1] is over 6.00. In the case of `N#Cc1ccc(C(=O)Nc2ccc(Cl)cc2N2CCCCC2)o1`, the inhibition at 2 µM stood at 90%. The pIC50 under setting [1] is over 6.00.

`N#Cc1ccc(C(=O)Nc2ccc(F)cc2N2CCCCC2)o1`: the inhibition at 2 µM was 94%. Under setting [1], the pIC50 was over 6.00. On to `CS(=O)(=O)NCc1ccc(N2CCCCC2)c(NC(=O)c2ccc(C#N)o2)c1`, for which the inhibition at 2 µM is 100%. For the same compound, the pIC50 under setting [1] was over 6.00. Regarding `N#Cc1ccc(C(=O)Nc2cc(CNCC(O)CO)ccc2N2CCCCC2)o1` (stereo not drawn), the inhibition at 2 µM worked out at 93%. Further, the pIC50 under setting [1] was over 6.00.

On to `N#Cc1ccc(N2CCCCC2)c(NC(=O)c2ccc(C#N)o2)c1`, for which 2 µM produced 95% inhibition. For the same compound, the pIC50 under setting [1] is over 6.00. For the compound `O=C(Nc1ccccc1N1CCCCC1)c1cc([N+](=O)[O-])n[nH]1`, the inhibition at 2 µM came to 50%. For the same compound, under setting [1], the pIC50 was under 6.00. `N#Cc1ccc(C(=O)Nc2ccccc2N2CCC(CO)CC2)o1` returned an inhibition at 2 µM of 93%. Under setting [1], the pIC50 was over 6.00. For the compound `CC(C)(O)c1ccc(NC(=O)c2nc(C#N)c[nH]2)c(C2=CCCCC2)c1` [Example 12, 4-Cyano-1H-imidazole-2-carboxylic acid [2-cyclohex-1-enyl-4-(1-hydroxy-1-methyl-ethyl)-phenyl]-amide], the pIC50 under setting [2] was over 6.00.

Take `COC(C)(C)c1ccc(NC(=O)c2nc(C#N)c[nH]2)c(C2=CCCCC2)c1` [Example 13, 4-Cyano-1H-imidazole-2-carboxylic acid [2-cyclohex-1-enyl-4-(1-methoxy-1-methyl-ethyl)-phenyl]-amide]: the pIC50 under setting [2] is over 6.00.

On to `CC(C)(N)c1ccc(NC(=O)c2nc(C#N)c[nH]2)c(C2=CCCCC2)c1` [Example 14, 4-Cyano-1H-imidazole-2-carboxylic acid [4-(1-amino-1-methyl-ethyl)-2-cyclohex-1-enyl-phenyl]-amide, acetic acid salt], for which the pIC50 under setting [2] was over 6.00.

On to `CC(C)c1ccc(NC(=O)c2nc(C#N)c[nH]2)c(C2=CCCCC2)c1` [Example 22, 4-Cyano-1H-imidazole-2-carboxylic acid (2-cyclohex-1-enyl-4-isopropyl-phenyl)-amide], for which, under setting [2], the pIC50 was over 6.00. As to `CC1CCN(c2ccccc2NC(=O)c2nc(C#N)c[nH]2)CC1` [Example 41, 4-Cyano-1H-imidazole-2-carboxylic acid [2-(4-methyl-piperidin-1-yl)-phenyl]-amide trifluoroacetic acid salt], under setting [2], the pIC50 was over 6.00. For the compound `CC1(C)CC=C(c2ncccc2NC(=O)c2nc(C#N)c[nH]2)CC1` [Example 42, 4-Cyano-1H-imidazole-2-carboxylic acid [2-(4,4-dimethyl-cyclohex-1-enyl)-pyridin-3-yl]-amide trifluoroacetic acid salt], the pIC50 under setting [2] was over 6.00.

Consider `CC1(C)CCN(c2ncccc2NC(=O)c2nc(C#N)c[nH]2)CC1` [Example 63, 4-Cyano-1H-imidazole-2-carboxylic acid (4,4-dimethyl-3,4,5,6-tetrahydro-2H-[1,2′]bipyridinyl-3′-yl)-amide trifluoroacetic acid salt], for which the pIC50 under setting [2] is over 6.00.

As for `CC1(C)CC=C(c2ccccc2NC(=O)c2nc(C#N)c[nH]2)CC1` [Example 67, 4-Cyano-1H-imidazole-2-carboxylic acid [2-(4,4-dimethyl-cyclohex-1-enyl)-phenyl]-amide], under setting [2], the pIC50 was over 6.00.
